According to the supplement of paper PMC10627819:

Experiments:
Test in all cases: fitness (endpoint OD595 vs no drug) (fraction); higher = more growth
S. aureus Newman = tested on: S. aureus Newman
Method in brief: (§1)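 At 37 °C, bacteria in TSB, LB Lennox or CY were grown in 384-well plates from a starting OD595 of 0.01. OD595 was measured every 30 min for 14 h, with the first reading used as background. Fitness is the optical density at the switch to stationary phase as a fraction of the robust mean of no-drug control wells, capped at 1.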

B. subtilis 168 = tested on: B. subtilis 168
Method in brief: as §1

S. pneumoniae D39V = tested on: S. pneumoniae D39V
Method in brief: as §1
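Note: OD595 on entry to stationary phase over no-drug wells; at most 1.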

CC1(C)S[C@@H]2[C@H](NC(=O)Cc3ccccc3)C(=O)N2[C@H]1C(=O)O [Penicillin G] + CN[C@@H]1[C@H](O[C@H]2[C@H](O[C@H]3[C@H](O)[C@@H](O)[C@H](N=C(N)N)[C@@H](O)[C@@H]3N=C(N)N)O[C@@H](C)[C@]2(O)C=O)O[C@@H](CO)[C@H](O)[C@H]1O [Streptomycin]
fitness, S. aureus Newman
Settings | first compound 0.0195 µg/mL | first compound 0.039 µg/mL | first compound 0.078 µg/mL
partner 1 µg/mL | 0.903 | 0.878 | 0.887
partner 2 µg/mL | 0.829 | 0.865 | 0.863

CC1(C)S[C@@H]2[C@H](NC(=O)Cc3ccccc3)C(=O)N2[C@H]1C(=O)O [Penicillin G] + CN(C)c1cc(NC(=O)CNC(C)(C)C)c(O)c2c1C[C@H]1C[C@H]3[C@H](N(C)C)C(O)=C(C(N)=O)C(=O)[C@@]3(O)C(O)=C1C2=O [Tigecycline]
fitness, S. aureus Newman
Settings | first compound 0.0195 µg/mL | first compound 0.039 µg/mL | first compound 0.078 µg/mL
partner 0.039 µg/mL | 0.879 | 0.879 | 0.864
partner 0.078 µg/mL | 0.898 | 0.919 | 0.913
partner 0.156 µg/mL | 0.904 | 0.924 | 0.913

CC1(C)S[C@@H]2[C@H](NC(=O)Cc3ccccc3)C(=O)N2[C@H]1C(=O)O [Penicillin G] + CN[C@H](CC(C)C)C(=O)N[C@H]1C(=O)N[C@@H](CC(N)=O)C(=O)N[C@H]2C(=O)N[C@H]3C(=O)N[C@H](C(=O)N[C@H](C(=O)O)c4cc(O)cc(O)c4-c4cc3ccc4O)[C@H](O)c3ccc(c(Cl)c3)Oc3cc2cc(c3O[C@@H]2O[C@H](CO)[C@@H](O)[C@H](O)[C@H]2O[C@H]2C[C@](C)(N)[C@H](O)[C@H](C)O2)Oc2ccc(cc2Cl)[C@H]1O [Vancomycin]
fitness, S. aureus Newman
Settings | first compound 0.0195 µg/mL | first compound 0.039 µg/mL | first compound 0.078 µg/mL
partner 0.1875 µg/mL | 0.895 | 0.885 | 0.907
partner 0.375 µg/mL | 0.918 | – | 0.926
partner 0.75 µg/mL | 0.884 | – | 0.88

CC1(C)S[C@@H]2[C@H](NC(=O)Cc3ccccc3)C(=O)N2[C@H]1C(=O)O [Penicillin G] + CN(N=O)C(=O)N[C@@H](C=O)[C@@H](O)[C@H](O)[C@H](O)CO [Streptozotocin]
fitness, S. aureus Newman
Settings | first compound 0.0195 µg/mL | first compound 0.039 µg/mL | first compound 0.078 µg/mL
partner 0.15 µg/mL | 0.759 | 0.731 | 0.709
partner 0.3 µg/mL | 0.623 | 0.627 | 0.621
partner 0.6 µg/mL | 0.501 | 0.486 | 0.493

O=C(O)c1cn(C2CC2)c2cc(N3CCNCC3)c(F)cc2c1=O [Ciprofloxacin] + CO/N=C(\C(=O)N[C@@H]1C(=O)N2C(C(=O)O)=C(COC(N)=O)CS[C@H]12)c1ccco1 [Cefuroxime]
fitness, one replicate
Settings | partner 0.04875 µg/mL | partner 0.0975 µg/mL | partner 0.195 µg/mL | partner 0.39 µg/mL | partner 0.78 µg/mL | partner 1.562 µg/mL | partner 3.125 µg/mL | partner 6.25 µg/mL
B. subtilis 168, first compound 0.0098 µg/mL | – | – | – | 0.266 | 0.224 | 0.24 | 0.179 | 0.0609
B. subtilis 168, first compound 0.0195 µg/mL | – | – | – | 0.0291 | 0.0398 | 0.0343 | 0.0254 | 0.0167
B. subtilis 168, first compound 0.039 µg/mL | – | – | – | 0.0168 | 0.0177 | 0.0261 | 0.0302 | 0.0254
S. aureus Newman, first compound 0.078 µg/mL | 0.554 | 0.441 | 0.469 | – | – | – | – | –
S. aureus Newman, first compound 0.156 µg/mL | 0.0634 | 0.0619 | 0.0412 | – | – | – | – | –
S. aureus Newman, first compound 0.312 µg/mL | 0.0573 | 0.0666 | 0.061 | – | – | – | – | –

fitness, B. subtilis 168
Settings | first compound 0.0098 µg/mL | first compound 0.0195 µg/mL | first compound 0.039 µg/mL
partner 0.04875 µg/mL | 0.632 | 0.391 | 0.042
partner 0.0975 µg/mL | – | 0.212 | 0.0421
partner 0.195 µg/mL | 0.317 | 0.0634 | 0.0359

CC1(C)S[C@@H]2[C@H](NC(=O)Cc3ccccc3)C(=O)N2[C@H]1C(=O)O [Penicillin G] + Cn1nnc(-c2ccc(-c3ccc(N4C[C@H](CO)OC4=O)cc3F)cn2)n1 [Tedizolid]
fitness, S. aureus Newman
Settings | first compound 0.0195 µg/mL | first compound 0.039 µg/mL | first compound 0.078 µg/mL
partner 0.0625 µg/mL | 0.864 | 0.861 | 0.849
partner 0.125 µg/mL | 0.803 | – | 0.719
partner 0.25 µg/mL | 0.405 | 0.339 | 0.305

CN(C)c1cc(NC(=O)CNC(C)(C)C)c(O)c2c1C[C@H]1C[C@H]3[C@H](N(C)C)C(O)=C(C(N)=O)C(=O)[C@@]3(O)C(O)=C1C2=O [Tigecycline] + Cn1nnc(-c2ccc(-c3ccc(N4C[C@H](CO)OC4=O)cc3F)cn2)n1 [Tedizolid]
fitness
Settings | partner 0.03125 µg/mL | partner 0.0625 µg/mL | partner 0.125 µg/mL | partner 0.25 µg/mL | partner 0.5 µg/mL
S. aureus Newman, first compound 0.039 µg/mL | – | 0.972 | – | – | –
S. aureus Newman, first compound 0.078 µg/mL | – | 0.941 | 0.844 | 0.469 | –
S. aureus Newman, first compound 0.156 µg/mL | – | 0.965 | – | 0.466 | –
S. pneumoniae D39V, first compound 0.65 µg/mL | 0.923 | 0.934 | 0.81 | 0.653 | 0.379
S. pneumoniae D39V, first compound 1.3 µg/mL | 0.911 | 0.903 | 0.791 | 0.658 | 0.353
S. pneumoniae D39V, first compound 2.6 µg/mL | 0.884 | 0.943 | 0.827 | 0.669 | 0.375
